41 molecules from US9290511B2, “Thieno-pyrimidines, useful as potassium channel inhibitors” (XENTION LIMITED, priority 2011, dated 2016) can be followed below.

The target in this assay is T1, Kir3.1/3.4 (Rattus norvegicus, UniProt P48548+P63251).
T1 construct: expressed in transfected cells
T1 sequence (P63251 1-501): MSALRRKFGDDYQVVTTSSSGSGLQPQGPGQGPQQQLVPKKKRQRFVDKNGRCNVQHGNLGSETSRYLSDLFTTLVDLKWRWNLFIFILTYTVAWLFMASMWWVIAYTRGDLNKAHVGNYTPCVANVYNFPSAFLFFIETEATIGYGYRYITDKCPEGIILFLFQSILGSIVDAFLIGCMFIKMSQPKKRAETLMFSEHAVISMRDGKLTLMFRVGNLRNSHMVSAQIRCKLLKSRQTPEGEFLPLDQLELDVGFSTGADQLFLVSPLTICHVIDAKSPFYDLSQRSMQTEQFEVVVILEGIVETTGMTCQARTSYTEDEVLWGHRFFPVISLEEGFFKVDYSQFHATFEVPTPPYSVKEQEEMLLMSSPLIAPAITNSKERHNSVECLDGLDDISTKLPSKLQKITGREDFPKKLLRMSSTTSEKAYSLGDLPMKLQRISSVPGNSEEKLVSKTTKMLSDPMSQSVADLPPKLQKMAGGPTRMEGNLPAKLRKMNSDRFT
T1 sequence (P48548 1-419): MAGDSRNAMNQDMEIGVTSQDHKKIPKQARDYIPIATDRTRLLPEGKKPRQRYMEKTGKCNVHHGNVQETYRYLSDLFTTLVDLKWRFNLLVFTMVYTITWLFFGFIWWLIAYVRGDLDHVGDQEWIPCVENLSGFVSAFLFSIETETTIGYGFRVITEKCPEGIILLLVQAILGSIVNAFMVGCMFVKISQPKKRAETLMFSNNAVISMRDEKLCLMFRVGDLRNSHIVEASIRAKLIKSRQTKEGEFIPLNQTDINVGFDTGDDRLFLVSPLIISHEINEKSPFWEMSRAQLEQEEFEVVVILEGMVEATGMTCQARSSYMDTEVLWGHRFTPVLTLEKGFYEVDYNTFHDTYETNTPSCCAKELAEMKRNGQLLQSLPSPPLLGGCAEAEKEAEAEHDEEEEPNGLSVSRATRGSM
Description: Kir3.1/3.4 Electrophysiology Method (manual whole-cell patch clamp). The note with it: Electrophysiology Method (TABLE 1). The format is cell-based. As to the method:
Compound activity against the recombinant G-protein activated inward rectifier current encoded by the heterotetramer Kir3.1/3.4 was assessed using manual whole-cell patch technique. The heterotetramer forms the pore-forming channel that conducts the acetylcholine/adenosine-activated potassium current in the heart.
For whole-cell patch-clamp studies, cells (Human Embryonic Kidney 293 stably transfected with rat Kir3.1/3.4) were seeded onto glass coverslips before recordings were made. Cells were seeded in sterile 30 mm Petri dishes at a density to enable isolated cells to be selected for patch clamp experiments. The dishes were stored in a humidified, gassed (5% CO2) incubator at 37° C. until use.
Whole-cell patch-clamp recordings of membrane currents were made following gigaohm seal formation between the patch electrode and the cell using HEKA EPC-9/10 amplifiers controlled by Pulse Software (Ver8.5x/8.6×/8.7×, HEKA, Germany). Coverslips seeded with cells were placed in a recording chamber mounted on the stage of an inverted microscope. During the experiment, the cell of interest was continuously superfused with bather solution delivered via a cannula placed in close proximity to the cell to enable control of the extracellular solution environment. Only those cells with a current <−500 pA (current at −140 mV) were used for experiments. During experiments, series resistance was compensated by a minimum of 70%.
Electrophysiology voltage-step protocols and analysis of data were performed as follows. Data was sampled at 5 kHz, and filtered with a −3 dB bandwidth of 2.5 kHz. Cells were held at a voltage of −60 mV. Currents were evoked by a depolarising voltage step to +60 mV (100 ms) before a ramp-repolarisation (0.4 V·s^−1) to −140 mV (100 ms) before returning to −60 mV. The command waveform was repeatedly applied every 10 s throughout the experiment. Mean currents during 1-99% of the time at −140 mV were analysed using Pulsefit software (v8.x, HEKA, Germany). The voltage protocol was repeatedly applied to achieve a stable current baseline in bather before the test substance was superfused via the cannula in close proximity to the cell under investigation. The test substance was allowed to equilibrate during which time voltage protocol was repeatedly applied and recorded. On reaching steady-state inhibition, the cell was superfused with an identical bather solution containing zero external potassium chloride (replaced by equimolar NaCl). The identical current measurement was made in the absence of potassium to assess the passive leak at −140 mV. The leak current was subtracted from the control and steady-state drug current values. The percentage inhibition of the leak-subtracted current in the presence of test substance was calculated relative to the control leak-subtracted pre-drug value. Internal patch-pipette solution contained in mM: 110 KCl, 20 NaCl, 0.9 GTPγS, 5 Mg-ATP, 5 EGTA, 10 HEPES, pH7.2 corrected with KOH. The external superfusate composition in mM was: 150 (or 160) NaCl, 10 (or 0) KCl, 3 CaCl2, 1 MgCl, 10 HEPES, pH 7.4 corrected with NaOH.
Turning to `CN1CCN(c2nc(N3CCC(CN4CCCC(N(C)C)C4)CC3)c3c(-c4ccccc4)csc3n2)CC1` (centres unmarked) [Example 115], the IC50 (as a rule, the midpoint of a concentration-inhibition curve) is under 500 nM.
Regarding `CC(=O)N(C)C1CCN(c2nc(N3CCC(CN(C)C4CCN(C)C4)CC3)c3c(-c4ccccc4)csc3n2)CC1` (centres unmarked) [Example 241], the IC50 was under 500 nM.
Then `c1cncc(-c2csc3ncnc(N4CCC(COCCN5CCCC5)CC4)c23)c1` [Example 324], with 500 to 3000 nM; and `c1sc2nc(N3CCC(COCCN4CCCC4)CC3)ncc2c1C1CCCCC1` [Example 283], with under 500 nM.
`c1ccc(-c2csc3ncnc(N4CCC(OCCN5CCCC5)CC4)c23)cc1` [Example 271] came in with an IC50 of under 500 nM.
`c1ccc(-c2csc3ncnc(N4C5CCC4CC(COCCN4CCCC4)C5)c23)cc1` (centres unmarked) [Example 286] gave an IC50 of under 500 nM.
Then `CN1CCC(N(C)CC2CCN(c3nc(N4CCCC(C(N)=O)C4)nc4scc(-c5ccccc5)c34)CC2)C1` (centres unmarked) [Example 238], with under 500 nM; and `c1ccc(-c2coc3ncnc(N4CCC(COCCN5CCCC5)CC4)c23)cc1` [Example 308, 5-phenyl-4-[4-(2-pyrrolidin-1-ylethoxymethyl)-1-piperidyl]furo[2,3-d]pyrimidine], with under 500 nM.
`c1ccc(-c2csc3ncnc(N4CCC(CN5CCC(N6CCCCC6)C5)CC4)c23)cc1` (centres unmarked) [Example 218] displayed an IC50 of under 500 nM.
Consider `CN1CCC(N(C)C2CCN(c3ncnc4scc(-c5ccccc5)c34)CC2)C1` (centres unmarked) [Example 231], for which the half-maximal inhibitory concentration (IC50) is under 500 nM.
In turn, `OCC1CCCN1CC1CCN(c2ncnc3scc(-c4ccccc4)c23)CC1` (centres unmarked) [Example 65, [1-[[1-(5-phenylthieno[2,3-d]pyrimidin-4-yl)-4-piperidyl]methyl]pyrrolidin-2-yl]methanol] gave an IC50 of under 500 nM.
Consider `COCC1CCN(c2nc(NCCN3CCCC3)nc3scc(-c4ccccc4)c23)CC1` [Example 175], for which the IC50 is under 500 nM.
The molecule `COCCNc1nc(N2CCC(CNC3CCC3)CC2)c2c(-c3ccccc3)csc2n1` [Example 126] showed an IC50 of under 500 nM.
Molecule `CC(C)N(CCNCC1CCN(c2ncnc3scc(-c4ccccc4)c23)CC1)C(C)C` [Example 62, N′,N′-diisopropyl-N-[[1-(5-phenylthieno[2,3-d]pyrimidin-4-yl)-4-piperidyl]methyl]ethane-1,2-diamine] displayed an IC50 of under 500 nM.
To `c1cc(-c2csc3ncnc(N4CCC(COCCN5CCCC5)CC4)c23)ccn1` [Example 311] belongs 500 to 3000 nM; to `COc1ncc(F)cc1-c1csc2ncnc(N3C4CCC3CC(NC3CCC3)C4)c12` (centres unmarked) [Example 346], 500 to 3000 nM; to `Cc1sc2ncnc(N3CCC(CNCCC4CCCN4C)CC3)c2c1C` (centres unmarked) [Example 220], under 500 nM.
For the molecule `NC(=O)[C@H]1CCCN1CCOC1CC2CC1CN2c1ncnc2scc(-c3ccccc3)c12` (some centres unmarked) [Example 293], the IC50 is under 500 nM.
Then `CC(C)NC(=O)c1sc2ncnc(N3CCC(COCCN4CCCC4)CC3)c2c1C(C)C` [Example 264], with 500 to 3000 nM; and `CN1CCCC1CCOCC1CCN(c2ncnc3sccc23)CC1` (centres unmarked) [Example 3, 4-[4-[2-(1-methylpyrrolidin-2-yl)ethoxymethyl]-1-piperidyl]thieno[2,3-d]pyrimidine], with 3000 to 10000 nM.
To `Fc1ccc(-c2csc3ncnc(N4CC5C(COCCN6CC7CC6CO7)C5C4)c23)cc1` (centres unmarked) [Example 48, 5-[2-[[3-[5-(4-fluorophenyl)thieno[2,3-d]pyrimidin-4-yl]-3-azabicyclo[3.1.0]hexan-6-yl]methoxy]ethyl]-2-oxa-5-azabicyclo[2.2.1]heptane] belongs under 500 nM; to `C[C@@H](CN(C)C)OCC1CCN(c2ncnc3scc(-c4ccccc4)c23)CC1` [Example 254], under 500 nM; to `O=C(Cc1nc(N2CCCC2c2ccccc2)c2c(-c3ccc(F)cc3)csc2n1)NCCN1CCCC1` (centres unmarked) [Example 199], under 500 nM.
In turn, `c1ccc(-c2csc3ncnc(N4C5CCC4CC(CN4CCCC4)C5)c23)cc1` (centres unmarked) [Example 335] gave an IC50 of under 500 nM.
Consider `CN(C)c1nc(N2CCC(COCCN3CCCC3)CC2)nc2scc(-c3ccccc3)c12` [Example 275], for which the 50% inhibitory concentration (IC50) is under 500 nM.
`CC(C)c1cc2c(N3CCC(COCCC4CCCCN4C)CC3)ncnc2s1` (centres unmarked) [Example 25, 6-isopropyl-4-[4-[2-(1-methyl-2-piperidyl)ethoxymethyl]-1-piperidyl]thieno[2,3-d]pyrimidine] yielded an IC50 of under 500 nM.
With `CN1CCCC1CCNCC1CCN(c2ncnc3scc(-c4ccccc4)c23)C1` (centres unmarked) [Example 204], the IC50 is under 500 nM.
Molecule `Cc1sc2ncnc(N3CCC(CN4CCCC(N(C)C)C4)CC3)c2c1C` (centres unmarked) [Example 234] had an IC50 of under 500 nM.
To `Cc1csc2ncnc(N3CCC(CNCCC4CCCN4C)CC3)c12` (centres unmarked) [Example 243] belongs under 500 nM.
To `c1ccc(-c2csc3ncnc(N4C5CCC4CC(OCCN4CCCC4)C5)c23)cc1` (centres unmarked) [Example 289] belongs under 500 nM; to `NC(=O)C1CCN(CCOCC2CCN(c3ncc4c(-c5ccccc5)csc4n3)CC2)C1` (centres unmarked) [Example 153], under 500 nM; to `CC(C)(C)NC(C)(C)C#Cc1ncnc2scc(-c3ccccc3)c12` [Example 318], under 500 nM.
Consider `CN1CCCC1CNCC1CCN(c2ncnc3scc(-c4ccccc4)c23)CC1` (centres unmarked) [Example 84, N-[(1-methylpyrrolidin-2-yl)methyl]-1-[1-(5-phenylthieno[2,3-d]pyrimidin-4-yl)-4-piperidyl]methanamine], for which the IC50 is under 500 nM.
Then `CC(C)OCC1CCN(c2ncnc3scc(-c4ccccc4)c23)CC1` [Example 15, 4-[4-(isopropoxymethyl)-1-piperidyl]-5-phenyl-thieno[2,3-d]pyrimidine], with 500 to 3000 nM; and `CC(=O)Nc1sc2nc(N3CCC(COCCN4CCCC4)CC3)ncc2c1-c1ccccc1` [Example 155, N-[5-phenyl-2-[4-(2-pyrrolidin-1-ylethoxymethyl)-1-piperidyl]thieno[2,3-d]pyrimidin-6-yl]acetamide], with 500 to 3000 nM.
For the molecule `Fc1ccc(-c2csc3ncnc(N4CCC(CNC5CC5)CC4)c23)cc1` [Example 77, N-[[1-[5-(4-fluorophenyl)thieno[2,3-d]pyrimidin-4-yl]-4-piperidyl]methyl]cyclopropanamine], the IC50 was in the range of 500 to 3000 nM.
`CC(C)NCC1CCN(c2ncnc3scc(C4CCCCC4)c23)CC1` [Example 196]: the IC50 was under 500 nM.
`CN1CCCC1CCOCC1CCN(c2nc(N3CCC(C(N)=O)C3)nc3scc(-c4ccccc4)c23)CC1` (centres unmarked) [Example 255] yielded a half-maximal inhibitory concentration (IC50) of under 500 nM.
To `CNC(=O)c1sc2ncnc(N3CCC(COCCN4CCCC4)CC3)c2c1-c1ccccc1` [Example 141] belongs under 500 nM; to `FC(F)(F)C1CCCN(CC2CCN(c3ncnc4scc(-c5ccccc5)c34)CC2)C1` (centres unmarked) [Example 212], under 500 nM; to “N-(2-pyrrolidin-1-ylethyl)thieno[2,3-d]pyrimidin-2-amine [Example 108]”, 500 to 3000 nM.
